Measured values published in patent US12209060B2, “Ketamine derivatives and compositions thereof” (XWPHARMA LTD., priority 2018, dated 2025).
Read-outs that look alike come from different tables or passages of the source.

Key:
In vivo Rat PK Studies = experiment: In vivo Rat PK Studies; set-up: species or system rats; conditions: oral; bioavailability with respect to S-ketamine; oral dose level 5 μmol/kg to 160 μmol/kg
Description: (§1) In vivo Mouse/Rat PK Studies: Pharmacokinetic profiles of the test compounds were evaluated in mice and rats […] (S-ketamine or prodrugs) administration. The oral dose level was 5 μmol/kg to 160 μmol/kg administered at a volume of 10 mL/kg. Blood samples were collected from the facial veins using heparinated tubes at pre-dose and 0.05, 0.17, 0.5, 1, 2, 3, 4, 6, and 8 hours post-dose following intravenous administration, and withdrawn at pre-dose and 0.17, 0.5, 1, 2, 3, 4, 5, 6, and 8 hours post-dose following oral administration. In each mouse PK study, mice were sub-grouped for a sparse sampling strategy. Each mouse provided two blood samples at different collection times. Blood samples were collected from alternating groups of three mice per time point.
(§2) Non-compartmental analysis was performed to generate parameter estimates.

[1] = Whole blood stability (ketamine formation), mouse; type: in vitro ADME; conditions: ketamine formed, S-ketamine = 100
[2] = Whole blood stability (ketamine formation), human; type: in vitro ADME; conditions: ketamine formed, S-ketamine = 100
[3] = In vivo Monkey PK studies; conditions: for AUC(0-∞) / Cmax: S-ketamine in blood
Description: The de-proteinized samples were temporarily held in ice following by storing at −70° C. before bioanalysis.
(§3) Bio-Analysis: Samples were monitored for parent compound disappearance and ketamine formation in multi-reaction monitoring (MRM) mode by LC-MS/MS system. The mobile phase was performed at a constant flow rate of 0.8 mL/min using a binary solvent system: Solvent A, de-ionized water containing 0.10% formic acid, and Solvent B, methanol containing 0.10% formic acid. MRM data were acquired, and the chromatograms were integrated using Quant Wizard of the version 1.5.2 software (Analyst Software from ABI). A weighted (1/x or 1/x^2) linear regression was used to generate the calibration curve from standards and to calculate the sample concentrations.
(§4) Pharmacokinetic Data Analysis: The pharmacokinetic parameters were estimated for each subject using the Phoenix™ WinNonlin program, version 6.3 (Phoenix WinNonlin© 2012, Pharsight Corporation, Mountain View, CA). Non-compartmental analysis was performed to generate parameter estimates. The terminal elimination rate constant (λ) was obtained, where possible, by linear regression of the terminal elimination phase of a log-linear plot of the blood concentration-time data. The criteria for λ acceptance were regression of at least three time points from the terminal elimination phase and r^2≥0.85. Half-life was defined as not determined (ND) if the criteria could not be met. Nominal time was used for t1/2 and AUC calculations. The apparent blood terminal elimination half-life (t1/2) was calculated according to the following formula: t1/2=ln(2)/λ. The observed maximum blood concentration (Cmax) and the time to reach the maximum blood concentration (Tmax) were obtained by visual inspection of the experimental data. The area under the blood concentration-time curve of ketamine from time 0 to the last measurable concentration (AUC(0-Last)) was determined by the linear trapezoidal method. The area under the blood concentration-time curve from time 0 to infinity (AUC(0-∞)) was determined by AUC(0-Last)+CLast/λ, in which CLast was the concentration corresponding to the time point of last measurable concentration (TLast).

In vivo Dog PK Studies = conditions: for AUC(0-last) / Cmax: S-ketamine in blood
Description: In vivo Dog PK Studies: Three male Beagle dogs were housed individually. Dogs in the oral administration groups were fasted overnight before treatment but with free access to water. Dogs in the IV groups had free access to food and water. For S-ketamine HCl salt, a single dose of […] was administered to each dog via intravenous (IV) administration. The vehicle used for S-ketamine HCl salt was saline. For other test compounds, a single dose of each test compound was administered to each dog via oral gavage (n=3/group). The vehicles used for dosing the test compounds were dependent on the properties of the test compound. Blood samples were collected at specified time-points (pre-dose, 10 min, 30 min, 1 h, 2 h, 3 h, 4 h, 5 h, 6 h, 8 h, post-dose) following administration to individual dogs within IV and PO group. To prevent compound degradation, drawn blood samples were immediately mixed in a ratio of 1:3 (v/v) with acetonitrile (containing 0.1% formic acid). The de-proteinized samples were temporarily held in ice following by storing at −70° C. before bioanalysis. The concentrations of analytes in the blood were determined by LC-MS/MS. Various pharmacokinetic parameters were calculated using Phoenix™ WinNonlin® software. To quantify the bioconversion efficiency of the test compounds in the circulation system, the bioavailability of S-ketamine after PO administration was calculated.
as §3, §4

[4] = Whole blood stability (ketamine formation), monkey; type: in vitro ADME; conditions: ketamine formed, S-ketamine = 100
[5] = Whole blood stability (ketamine formation), dog; type: in vitro ADME; conditions: ketamine formed, S-ketamine = 100
[6] = cited from earlier work; for Cmax / Tmax / oral bioavailability: humans, orally administered 50 mg tablet, Yanagihara et al. 2003
In vivo Mouse PK Studies = experiment: In vivo Mouse PK Studies; set-up: species or system mice; conditions: oral; bioavailability with respect to S-ketamine; oral dose level 5 μmol/kg to 160 μmol/kg
Description: as §1, §2

[7] = Whole blood stability (ketamine formation), rat; type: in vitro ADME; conditions: 3 μM, 37° C., up to 60 min, ketamine formed, S-ketamine = 100
Description: Whole Blood Stability Assay: Test compounds were incubated in 37° C. pre-warmed rat whole blood at 3 μM (final acetonitrile concentration 1%) for up to 60 min at 37° C. One-hundred 100 μL aliquots of spiked sample solutions were taken at pre-defined time points (0 to 60 min) post incubation, and were immediately extracted by adding 5 volumes of extraction solvent and then centrifuged at 20,000×g for 5 min. The supernatant fractions were analyzed with LC-MS/MS for the amount of the test compound remaining and ketamine.

[8] = oral, bioavailability with respect to S-ketamine (Table 5 summary)

CN[C@]1(c2ccccc2Cl)CCCCC1=O [S-ketamine]
Rat F (In vivo Rat PK Studies): 4.9% | Mouse Ket (%) [1]: 100% | Human Ket (%) [2]: 100% | AUC(0-∞) ([3]; monkeys, IV @5 μmol/kg): 2.325 µM·h | Cmax ([3]; monkeys, IV @5 μmol/kg): 1200 nM | AUC(0-∞) ([3]; monkeys, PO @10 μmol/kg): 0.034 µM·h | Cmax ([3]; monkeys, PO @10 μmol/kg): 13 nM | F ([3]; monkeys, PO @10 μmol/kg, bioavailability of S-ketamine): 0.7% | Monkey F [3, 8]: 0.7% | AUC(0-last) (In vivo Dog PK Studies; dogs, IV @3.75 μmol/kg): 0.244 µM·h | Cmax (In vivo Dog PK Studies; dogs, IV @3.75 μmol/kg): 669 nM | AUC(0-last) (In vivo Dog PK Studies; dogs, PO 15 μmol/kg): 0.017 µM·h | Cmax (In vivo Dog PK Studies; dogs, PO 15 μmol/kg): 9 nM | F (In vivo Dog PK Studies; dogs, PO 15 μmol/kg, bioavailability of S-ketamine): 1.8% | Dog F (In vivo Dog PK Studies; [8]): 1.8% | Monkey Ket (%) [4]: 100% | Dog Ket (%) [5]: 100% | Cmax [6]: about 41 ng/mL | Tmax [6]: about 31 min | oral bioavailability [6]: about 18% | Mouse F (In vivo Mouse PK Studies): 5.6% | Rat Ket (%) [7]: 100%

CNC1(c2ccccc2Cl)CCCCC1=O (centres unmarked) [Ketamine, 2-(2-chiorophenyl)-2-(methylamino)cyclohexan-1-one]
oral bioavailability in humans (% F) [6]: about 20%

CN[C@@]1(c2ccccc2Cl)CCCCC1=O [(R)-ketamine]
Cmax [6]: about 41 ng/mL | Tmax [6]: about 31 min | oral bioavailability [6]: about 18%
